Results from ChEMBL document CHEMBL1159092, “Polar 3-alkylidene-5-pivaloyloxymethyl-5'-hydroxymethyl-gamma-lactones as protein kinase C ligands and antitumor agents” (Bioorg Med Chem Lett, 2010).
In brackets after ≈: the same amount, converted by molar mass.

How the values were obtained:
[1] = Antitumor activity against human Hs 578T cells; format: functional
COLO 205 = test: Antitumor activity against human COLO205 cells; format: functional
SK-MEL-5 = test: Antitumor activity against human SK-MEL-5 cells; format: functional
[2] = Antitumor activity against human NCI-H322 cells; format: functional
[3] = target: Protein kinase C alpha type (Homo sapiens, UniProt P17252); test: Displacement of [20-3H]phorbol 12,13-dibutyrate from recombinant PKCalpha
K562 = test: Antitumor activity against human K562 cells; format: functional
MOLT-4F = test: Antitumor activity against human MOLT4F cells; format: functional
CCRF-CEM = test: Antitumor activity against human CCRF-CEM cells; format: functional
HL-60 = test: Antitumor activity against human HL60 cells; format: functional

Row | SMILES | GI50 [1] | GI50 (COLO 205) | GI50 (SK-MEL-5) | GI50 [2] | Ki [3] | GI50 (K562) | GI50 (MOLT-4F) | GI50 (CCRF-CEM) | GI50 (HL-60)
1 | CC(=O)OCCCCCCCCCCCCCCC/C=C1\CC(CO)(COC(=O)C(C)(C)C)OC1=O (stereo not given) | > 10 µg/mL | 2.1 µg/mL (≈ 4.11 µM) | 5.62 µg/mL (≈ 11 µM) | > 10 µg/mL | 9.3 nM | 0.959 µg/mL (≈ 1.88 µM) | 1.55 µg/mL (≈ 3.03 µM) | 7.55 µg/mL (≈ 14.8 µM) | > 10 µg/mL
2 | COCCCCCCCCCCCCCCC/C=C1/CC(CO)(COC(=O)C(C)(C)C)OC1=O (stereo not given) | 6.77 µg/mL (≈ 14 µM) | 0.178 µg/mL (≈ 0.369 µM) | 2.13 µg/mL (≈ 4.42 µM) | > 10 µg/mL | 5 nM | 0.138 µg/mL (≈ 0.286 µM) | 1.64 µg/mL (≈ 3.4 µM) | < 0.1 µg/mL | 3.97 µg/mL (≈ 8.22 µM)
3 | CC(C)(C)C(=O)OCC1(CO)C/C(=C\CCCCCCCCCCCO)C(=O)O1 (stereo not given) | > 10 µg/mL | 2.49 µg/mL (≈ 6.03 µM) | 5.81 µg/mL (≈ 14.1 µM) | > 10 µg/mL | 14.5 nM | 1.09 µg/mL (≈ 2.64 µM) | 1.34 µg/mL (≈ 3.26 µM) | 0.65 µg/mL (≈ 1.58 µM) | > 10 µg/mL
4 | COC(=O)CCCCCCCCCCCCCC/C=C1\CC(CO)(COC(=O)C(C)(C)C)OC1=O (stereo not given) | > 10 µg/mL | 3.86 µg/mL (≈ 7.77 µM) | 7.8 µg/mL (≈ 15.7 µM) | > 10 µg/mL | 6.83 nM | 0.856 µg/mL (≈ 1.72 µM) | > 10 µg/mL | 0.691 µg/mL (≈ 1.39 µM) | > 10 µg/mL
5 | CCCCCOCCCCCCC/C=C1\CC(CO)(COC(=O)C(C)(C)C)OC1=O (stereo not given) | 3 µg/mL (≈ 7.04 µM) | 0.491 µg/mL (≈ 1.15 µM) | 2.99 µg/mL (≈ 7.02 µM) | 9.52 µg/mL (≈ 22.3 µM) | 8.1 nM | 1.15 µg/mL (≈ 2.69 µM) | 1.03 µg/mL (≈ 2.41 µM) | 0.877 µg/mL (≈ 2.06 µM) | 2.96 µg/mL (≈ 6.94 µM)
6 | CC(C)(C)C(=O)OCC1(CO)C/C(=C\CCCCCCCCCCCCCCCO)C(=O)O1 (stereo not given) |  |  |  |  | 6.4 nM |  |  |  | 
7 | CC(C)(C)C(=O)OCC1(CO)C/C(=C\CCCCCCCCCCCCCCC=O)C(=O)O1 (stereo not given) | > 10 µg/mL | > 10 µg/mL | > 10 µg/mL | > 10 µg/mL | 6.38 nM | 5.11 µg/mL (≈ 10.9 µM) | > 10 µg/mL | 0.933 µg/mL (≈ 2 µM) | > 10 µg/mL
8 | CC(C)(C)C(=O)OCC1(CO)C/C(=C\CCCCCCCCCCCCCCCN=[N+]=[N-])C(=O)O1 (stereo not given) |  |  |  |  | 15.6 nM |  |  |  | 
9 | COCCOCOCCCCCCC/C=C1\CC(CO)(COC(=O)C(C)(C)C)OC1=O (stereo not given) |  |  |  |  | 323 nM |  |  |  | 
10 | CC(C)CCOCCCCCCC/C=C1\CC(CO)(COC(=O)C(C)(C)C)OC1=O (stereo not given) |  |  |  |  | 7.74 nM |  |  |  | 
11 | CCCCCCCCCOCCCCCCC/C=C1\CC(CO)(COC(=O)C(C)(C)C)OC1=O (stereo not given) | 4.64 µg/mL (≈ 9.61 µM) | 0.264 µg/mL (≈ 0.547 µM) | 1.43 µg/mL (≈ 2.96 µM) | > 10 µg/mL | 3.2 nM | 0.156 µg/mL (≈ 0.323 µM) | 2.14 µg/mL (≈ 4.43 µM) | 0.304 µg/mL (≈ 0.63 µM) | 4.53 µg/mL (≈ 9.37 µM)
12 | CC(C)(C)C(=O)OCC1(CO)C/C(=C\CCCCCCC=O)C(=O)O1 (stereo not given) |  |  |  |  | 39.3 nM |  |  |  | 
13 | COCCCCCCC/C=C1\CC(CO)(COC(=O)C(C)(C)C)OC1=O (stereo not given) |  |  |  |  | 191 nM |  |  |  | 
14 | COC(=O)CCCCCC/C=C1\CC(CO)(COC(=O)C(C)(C)C)OC1=O (stereo not given) |  |  |  |  | 533 nM |  |  |  | 
15 | COCOCCCCCCC/C=C1\CC(CO)(COC(=O)C(C)(C)C)OC1=O (stereo not given) | > 10 µg/mL | 2.01 µg/mL (≈ 5.01 µM) | 8.33 µg/mL (≈ 20.8 µM) | > 10 µg/mL | 198 nM | 3.69 µg/mL (≈ 9.22 µM) | 1.84 µg/mL (≈ 4.6 µM) | > 10 µg/mL | > 10 µg/mL
16 | CC(C)(C)C(=O)OCC1(CO)C/C(=C\CCCCCCCCCCCCCCCN)C(=O)O1 (stereo not given) | > 10 µg/mL | 1.53 µg/mL (≈ 3.28 µM) | 5.1 µg/mL (≈ 10.9 µM) | 8.43 µg/mL (≈ 18 µM) | 36.4 nM | 1.52 µg/mL (≈ 3.25 µM) | 3.17 µg/mL (≈ 6.77 µM) | 2.82 µg/mL (≈ 6.03 µM) | > 10 µg/mL

Row | SMILES | GI50 [1] | GI50 (COLO 205) | GI50 (SK-MEL-5) | GI50 [2] | Ki [3] | GI50 (K562) | GI50 (MOLT-4F) | GI50 (CCRF-CEM) | GI50 (HL-60)
17 | CC(C)(C)C(=O)OCCCCCCCCCCCCCCC/C=C1\CC(CO)(COC(=O)C(C)(C)C)OC1=O (stereo not given) | 5.24 µg/mL (≈ 9.48 µM) | 0.597 µg/mL (≈ 1.08 µM) | 3.46 µg/mL (≈ 6.25 µM) | > 10 µg/mL | 10.5 nM | 0.352 µg/mL (≈ 0.637 µM) | 0.605 µg/mL (≈ 1.09 µM) | > 10 µg/mL | 7.78 µg/mL (≈ 14.1 µM)
18 | COCCCCCCCCCCCCCCC/C=C1\CC(CO)(COC(=O)C(C)(C)C)OC1=O (stereo not given) | 5.45 µg/mL (≈ 11.3 µM) | 0.118 µg/mL (≈ 0.244 µM) | 1.75 µg/mL (≈ 3.63 µM) | > 10 µg/mL | 4.4 nM | 0.189 µg/mL (≈ 0.392 µM) | 0.498 µg/mL (≈ 1.03 µM) | 4.26 µg/mL (≈ 8.83 µM) | 4.65 µg/mL (≈ 9.64 µM)
19 | CC(=O)NCCCCCCCCCCCCCCC/C=C1\CC(CO)(COC(=O)C(C)(C)C)OC1=O (stereo not given) | > 10 µg/mL | 4.74 µg/mL (≈ 9.29 µM) | > 10 µg/mL | > 10 µg/mL | 8.25 nM | 3.38 µg/mL (≈ 6.64 µM) | 6.35 µg/mL (≈ 12.5 µM) | 1.08 µg/mL (≈ 2.11 µM) | > 10 µg/mL
20 | CC(C)(C)C(=O)OCC1(CO)C/C(=C\CCCCCCCCCCCCCCC(=O)O)C(=O)O1 (stereo not given) |  |  |  |  | 29.7 nM |  |  |  | 
21 | CC(C)(C)C(=O)OCC1(CO)C/C(=C/CCCCCCCCCCCCCCC=O)C(=O)O1 (stereo not given) | > 10 µg/mL | 5.14 µg/mL (≈ 11 µM) | > 10 µg/mL | > 10 µg/mL | 11.4 nM | 2.58 µg/mL (≈ 5.53 µM) | 2.02 µg/mL (≈ 4.33 µM) | > 10 µg/mL | > 10 µg/mL
22 | CCCCCCCCC(O)CCCCCC/C=C1\CC(CO)(COC(=O)C(C)(C)C)OC1=O (stereo not given) | > 10 µg/mL | 8.91 µg/mL (≈ 19 µM) | > 10 µg/mL | > 10 µg/mL | 118 nM | 7.3 µg/mL (≈ 15.6 µM) | 7.91 µg/mL (≈ 16.9 µM) | 5.71 µg/mL (≈ 12.2 µM) | > 10 µg/mL
23 | COCCCCCCCCCCC/C=C1\CC(CO)(COC(=O)C(C)(C)C)OC1=O (stereo not given) | 7.34 µg/mL (≈ 17.2 µM) | 0.541 µg/mL (≈ 1.27 µM) | 2.81 µg/mL (≈ 6.58 µM) | > 10 µg/mL | 8.2 nM | 0.516 µg/mL (≈ 1.21 µM) | 2.38 µg/mL (≈ 5.59 µM) | 0.701 µg/mL (≈ 1.64 µM) | 5.22 µg/mL (≈ 12.2 µM)
24 | CC(C)(C)C(=O)OCC1(CO)C/C(=C\CCCCCCCCCCC=O)C(=O)O1 (stereo not given) |  |  |  |  | 30.3 nM |  |  |  | 
25 | CC(C)(C)C(=O)OCC1(CO)C/C(=C\CCCCCCCCCCCCCCCOC=O)C(=O)O1 (stereo not given) |  |  |  |  | 8 nM |  |  |  | 
26 | CC(C)(C)C(=O)OCC1(CO)C/C(=C\CCCCCCCOC2CCCC2)C(=O)O1 (stereo not given) |  |  |  |  | 10.2 nM |  |  |  | 
27 | CCCCCCCCCCCCC/C=C1/CC(CO)(COC(=O)C(C)(C)C)OC1=O (stereo not given) |  |  |  |  | 7.15 nM |  |  |  | 
28 | CC(C)(C)C(=O)OCC1(CO)C/C(=C/CCCCCCCCCCCCCCCO)C(=O)O1 (stereo not given) | > 10 µg/mL | 2.34 µg/mL (≈ 4.99 µM) | 5.34 µg/mL (≈ 11.4 µM) | > 10 µg/mL | 8.24 nM | 0.872 µg/mL (≈ 1.86 µM) | 1.37 µg/mL (≈ 2.93 µM) | 6.63 µg/mL (≈ 14.1 µM) | 6.39 µg/mL (≈ 13.6 µM)
29 | COc1cccc2c1C(=O)c1c(O)c3c(c(O)c1C2=O)C[C@@](O)(C(=O)CO)C[C@@H]3O[C@H]1C[C@H](N)[C@H](O)[C@H](C)O1.Cl [DOXORUBICIN HYDROCHLORIDE] | 0.596 µg/mL | 0.523 µg/mL | 0.481 µg/mL | 0.615 µg/mL |  | 0.375 µg/mL | 0.277 µg/mL | 0.181 µg/mL | 0.413 µg/mL
30 | CC(C)(C)C(=O)OCC1(CO)C/C(=C\CCCCCCCO)C(=O)O1 (stereo not given) |  |  |  |  | 378 nM |  |  |  | 
31 | CCCCCCCCCOCCC/C=C1\CC(CO)(COC(=O)C(C)(C)C)OC1=O (stereo not given) |  |  |  |  | 7.44 nM |  |  |  | 
32 | CCCCCCCCCCCCC/C=C1\CC(CO)(COC(=O)C(C)(C)C)OC1=O (stereo not given) | 2.27 µg/mL (≈ 5.34 µM) | 0.253 µg/mL (≈ 0.596 µM) | 0.779 µg/mL (≈ 1.83 µM) | > 10 µg/mL | 7.83 nM | < 0.1 µg/mL | 0.227 µg/mL (≈ 0.535 µM) | 0.14 µg/mL (≈ 0.33 µM) | 2.4 µg/mL (≈ 5.65 µM)
